Values of other authors, collected in PubChem BioAssay AID1259409 (Chemical Carcinogenesis Research Information System (CCRIS), 2018).

System: rodent chemically induced tumor inhibition, incidence and multiplicity
Experiment: CCRIS tumor inhibitor studies
Conditions: Dose [Inhibitor]: 0, Route [Inhibitor]: ORAL, Promoter: NONE USED

CC(C)=CCC/C(C)=C/C=C/C(C)=C/C=C/C(C)=C/C=C/C=C(C)/C=C/C=C(C)/C=C/C=C(\C)CCC=C(C)C
tumour outcome (control, treated, inhibition, significance) (Carcinogen: DIETHYLNITROSAMINE, 55-18-5, N-METHYL-N-NITROSOUREA, 684-93-5, 1,2-DIMETHYLHYDRAZINE, 306-37-6, Carcinogen: DIETHYLNITROSAMINE, 55-18-5, N-METHYL-N-NITROSOUREA, 684-93-5, 1,2-DIMETHYLHYDRAZINE, 306-37-6, 25 PPM IN DRINKING WATER FOR 21 WK BEGINNING 2 WK POST CARCINOGEN TREATMENT (STUDY DURATION: 32 WK), Species: MOUSE, Strain/Sex: B6C3F1/MALE, Target Tissue: Type of Lesion: LUNG: ADENOMA, Dose [Carcinogen]: 10 MG/KG BW DEN ON DAYS 11 AND 32 OF AGE, 120 PPM MNU IN DRINKING WATER FROM WKS 4 TO 9, 20 MG/KG BW DMH 2/WK FOR 5 WK): 11/16 (69%), 11/16 (69%), 0%, not significant
tumour outcome (control, treated, inhibition, significance) (Carcinogen: DIETHYLNITROSAMINE, 55-18-5, N-METHYL-N-NITROSOUREA, 684-93-5, 1,2-DIMETHYLHYDRAZINE, 306-37-6, Carcinogen: DIETHYLNITROSAMINE, 55-18-5, N-METHYL-N-NITROSOUREA, 684-93-5, 1,2-DIMETHYLHYDRAZINE, 306-37-6, 25 PPM IN DRINKING WATER FOR 21 WK BEGINNING 2 WK POST CARCINOGEN TREATMENT (STUDY DURATION: 32 WK), Species: MOUSE, Strain/Sex: B6C3F1/MALE, Target Tissue: Type of Lesion: LUNG: CARCINOMA, Dose [Carcinogen]: 10 MG/KG BW DEN ON DAYS 11 AND 32 OF AGE, 120 PPM MNU IN DRINKING WATER FROM WKS 4 TO 9, 20 MG/KG BW DMH 2/WK FOR 5 WK): 1/16 (6%), 2/16 (13%), -116%, not significant
tumour outcome (control, treated, inhibition, significance) (Carcinogen: DIETHYLNITROSAMINE, 55-18-5, N-METHYL-N-NITROSOUREA, 684-93-5, 1,2-DIMETHYLHYDRAZINE, 306-37-6, Carcinogen: DIETHYLNITROSAMINE, 55-18-5, N-METHYL-N-NITROSOUREA, 684-93-5, 1,2-DIMETHYLHYDRAZINE, 306-37-6, 50 PPM IN DRINKING WATER FOR 21 WK BEGINNING 2 WK POST CARCINOGEN TREATMENT (STUDY DURATION: 32 WK), Species: MOUSE, Strain/Sex: B6C3F1/FEMALE, Target Tissue: Type of Lesion: LUNG: ADENOMA, Dose [Carcinogen]: 10 MG/KG BW DEN ON DAYS 11 AND 32 OF AGE, 120 PPM MNU IN DRINKING WATER FROM WKS 4 TO 9, 20 MG/KG BW DMH 2/WK FOR 5 WK): 6/16 (38%), 8/15 (53%), -39%, not significant
tumour outcome (control, treated, inhibition, significance) (Carcinogen: DIETHYLNITROSAMINE, 55-18-5, N-METHYL-N-NITROSOUREA, 684-93-5, 1,2-DIMETHYLHYDRAZINE, 306-37-6, Carcinogen: DIETHYLNITROSAMINE, 55-18-5, N-METHYL-N-NITROSOUREA, 684-93-5, 1,2-DIMETHYLHYDRAZINE, 306-37-6, 50 PPM IN DRINKING WATER FOR 21 WK BEGINNING 2 WK POST CARCINOGEN TREATMENT (STUDY DURATION: 32 WK), Species: MOUSE, Strain/Sex: B6C3F1/MALE, Target Tissue: Type of Lesion: LUNG: ADENOMA, Dose [Carcinogen]: 10 MG/KG BW DEN ON DAYS 11 AND 32 OF AGE, 120 PPM MNU IN DRINKING WATER FROM WKS 4 TO 9, 20 MG/KG BW DMH 2/WK FOR 5 WK): 11/16 (69%), 3/16 (19%), 72%, p<0.02
tumour outcome (control, treated, inhibition, significance) (Carcinogen: DIETHYLNITROSAMINE, 55-18-5, N-METHYL-N-NITROSOUREA, 684-93-5, 1,2-DIMETHYLHYDRAZINE, 306-37-6, Carcinogen: DIETHYLNITROSAMINE, 55-18-5, N-METHYL-N-NITROSOUREA, 684-93-5, 1,2-DIMETHYLHYDRAZINE, 306-37-6, 50 PPM IN DRINKING WATER FOR 21 WK BEGINNING 2 WK POST CARCINOGEN TREATMENT (STUDY DURATION: 32 WK), Species: MOUSE, Strain/Sex: B6C3F1/MALE, Target Tissue: Type of Lesion: LUNG: CARCINOMA, Dose [Carcinogen]: 10 MG/KG BW DEN ON DAYS 11 AND 32 OF AGE, 120 PPM MNU IN DRINKING WATER FROM WKS 4 TO 9, 20 MG/KG BW DMH 2/WK FOR 5 WK): 1/16 (6%), 0/16 (0%), 100%, not significant
tumour outcome (control, treated, inhibition, significance) (Carcinogen: N-BUTYL-N-(4-HYDROXYBUTYL)NITROSAMINE, 3817-11-6, 0.0025% IN DRINKING WATER FOR 12 WK BEGINNING POST CARCINOGEN TREATMENT (STUDY DURATION: 20 WK), Species: RAT, Strain/Sex: F344/MALE, Target Tissue: Type of Lesion: URINARY BLADDER: TRANSITIONAL CELL CARCINOMA, Dose [Carcinogen]: 0.05% IN DRINKING WATER FOR 8 WK): 10/12 (83%), 10/12 (83%), 0%, not significant
tumour outcome (control, treated, inhibition, significance) (Carcinogen: N-METHYLNITROSAUREA, 684-93-5, 17 PPM IN TOMATO JUICE AND WATER (1:2) AS DRINKING FLUID FOR DURATION OF STUDY (STUDY DURATION: 35 WK), Species: RAT, Strain/Sex: F344/FEMALE, Target Tissue: Type of Lesion: COLON: TUMOR, Dose [Carcinogen]: 0.4% (0.5 ML) AQUEOUS SOLUTION 3/WK FOR 3 WK): 13/24 (54%), 5/24 (21%), 61%, p<0.02
tumour outcome (control, treated, inhibition, significance) (Carcinogen: N-METHYLNITROSOUREA, 684-93-5, 3.4 PPM IN TOMATO JUICE AND WATER (1:14) AS DRINKING FLUID FOR DURATION OF STUDY (STUDY DURATION: 35 WK), Species: RAT, Strain/Sex: F344/FEMALE, Target Tissue: Type of Lesion: COLON: TUMOR, Dose [Carcinogen]: 0.8% (0.5 ML) AQUEOUS SOLUTION 3/WK FOR 3 WKS): 21/25 (84%), 18/25 (72%), 14%, not significant
tumour outcome (control, treated, inhibition, significance) (Carcinogen: N-METHYLNITROSOUREA, 684-93-5, 17 PPM IN DRINKING WATER FOR DURATION OF STUDY (STUDY DURATION: 35 WK), Species: RAT, Strain/Sex: F344/FEMALE, Target Tissue: Type of Lesion: COLON: TUMOR, Dose [Carcinogen]: 0.4% (0.5 ML) AQUEOUS SOLUTION 3/WK FOR 3 WK): 13/24 (54%), 8/24 (33%), 39%, not significant
tumour outcome (control, treated, inhibition, significance) (Carcinogen: N-METHYLNITROSOUREA, 684-93-5, 17 PPM IN TOMATO JUICE AND WATER (1:2) AS DRINKING FLUID FOR DURATION OF STUDY (STUDY DURATION: 35 WK), Species: RAT, Strain/Sex: F344/FEMALE, Target Tissue: Type of Lesion: COLON: TUMOR, Dose [Carcinogen]: 0.8% (0.5 ML) AQUEOUS SOLUTION 3/WK FOR 3 WK): 21/25 (84%), 10/25 (40%), 52%, p<0.01
